Among the data in patent publication US20050282743A1, “Molecular interactions in cells” (Arbor Vita Corporation, priority 2001, published 2005) are Classification values, retold here.

Experiment in all cases: G' assay (10 uM PL peptide), results of TABLE 7 and TABLE 12
Format in all cases: binding

Assay [1] has as its target T1, PDZ protein (GST-PDZ fusion) (Homo sapiens, UniProt Q9NSN8).
T1 construct: made in house; host or cells: E. coli (DH5alpha, BL21 or JM109)
T1 sequence (Q9NSN8 1-517): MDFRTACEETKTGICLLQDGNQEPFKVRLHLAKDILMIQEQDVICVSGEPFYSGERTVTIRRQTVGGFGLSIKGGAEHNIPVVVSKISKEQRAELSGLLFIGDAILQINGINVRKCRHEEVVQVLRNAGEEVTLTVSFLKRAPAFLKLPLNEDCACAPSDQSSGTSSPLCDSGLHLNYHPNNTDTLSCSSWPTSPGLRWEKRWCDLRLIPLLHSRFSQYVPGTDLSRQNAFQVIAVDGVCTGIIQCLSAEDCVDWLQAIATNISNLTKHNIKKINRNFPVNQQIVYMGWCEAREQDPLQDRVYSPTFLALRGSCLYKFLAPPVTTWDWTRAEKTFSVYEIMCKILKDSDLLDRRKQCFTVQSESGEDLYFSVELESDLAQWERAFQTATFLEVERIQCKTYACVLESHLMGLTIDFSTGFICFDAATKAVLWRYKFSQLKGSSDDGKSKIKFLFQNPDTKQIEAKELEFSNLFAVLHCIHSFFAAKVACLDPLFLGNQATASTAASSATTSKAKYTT
The following applies: PDZ Syntrophin gamma-1, PDZ Domain 1. The procedure, abridged: (§1)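 Biotin-PL peptide (N-term label), 10 uM vs GST-PDZ; protein 5 ug/ml by default. A450 nm binned: 1 = 0-1, 2 = 1-2, 3 = 2-3, 4 = 3-4, 5 = >4 on >2 repeats, 0 = no binding.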

The target of assay [2] is T2, PDZ protein (GST-PDZ fusion) (Homo sapiens, UniProt Q07157).
T2 construct: made in house; host or cells: E. coli (DH5alpha, BL21 or JM109)
T2 sequence (Q07157 whole entry, the tested form may be a part): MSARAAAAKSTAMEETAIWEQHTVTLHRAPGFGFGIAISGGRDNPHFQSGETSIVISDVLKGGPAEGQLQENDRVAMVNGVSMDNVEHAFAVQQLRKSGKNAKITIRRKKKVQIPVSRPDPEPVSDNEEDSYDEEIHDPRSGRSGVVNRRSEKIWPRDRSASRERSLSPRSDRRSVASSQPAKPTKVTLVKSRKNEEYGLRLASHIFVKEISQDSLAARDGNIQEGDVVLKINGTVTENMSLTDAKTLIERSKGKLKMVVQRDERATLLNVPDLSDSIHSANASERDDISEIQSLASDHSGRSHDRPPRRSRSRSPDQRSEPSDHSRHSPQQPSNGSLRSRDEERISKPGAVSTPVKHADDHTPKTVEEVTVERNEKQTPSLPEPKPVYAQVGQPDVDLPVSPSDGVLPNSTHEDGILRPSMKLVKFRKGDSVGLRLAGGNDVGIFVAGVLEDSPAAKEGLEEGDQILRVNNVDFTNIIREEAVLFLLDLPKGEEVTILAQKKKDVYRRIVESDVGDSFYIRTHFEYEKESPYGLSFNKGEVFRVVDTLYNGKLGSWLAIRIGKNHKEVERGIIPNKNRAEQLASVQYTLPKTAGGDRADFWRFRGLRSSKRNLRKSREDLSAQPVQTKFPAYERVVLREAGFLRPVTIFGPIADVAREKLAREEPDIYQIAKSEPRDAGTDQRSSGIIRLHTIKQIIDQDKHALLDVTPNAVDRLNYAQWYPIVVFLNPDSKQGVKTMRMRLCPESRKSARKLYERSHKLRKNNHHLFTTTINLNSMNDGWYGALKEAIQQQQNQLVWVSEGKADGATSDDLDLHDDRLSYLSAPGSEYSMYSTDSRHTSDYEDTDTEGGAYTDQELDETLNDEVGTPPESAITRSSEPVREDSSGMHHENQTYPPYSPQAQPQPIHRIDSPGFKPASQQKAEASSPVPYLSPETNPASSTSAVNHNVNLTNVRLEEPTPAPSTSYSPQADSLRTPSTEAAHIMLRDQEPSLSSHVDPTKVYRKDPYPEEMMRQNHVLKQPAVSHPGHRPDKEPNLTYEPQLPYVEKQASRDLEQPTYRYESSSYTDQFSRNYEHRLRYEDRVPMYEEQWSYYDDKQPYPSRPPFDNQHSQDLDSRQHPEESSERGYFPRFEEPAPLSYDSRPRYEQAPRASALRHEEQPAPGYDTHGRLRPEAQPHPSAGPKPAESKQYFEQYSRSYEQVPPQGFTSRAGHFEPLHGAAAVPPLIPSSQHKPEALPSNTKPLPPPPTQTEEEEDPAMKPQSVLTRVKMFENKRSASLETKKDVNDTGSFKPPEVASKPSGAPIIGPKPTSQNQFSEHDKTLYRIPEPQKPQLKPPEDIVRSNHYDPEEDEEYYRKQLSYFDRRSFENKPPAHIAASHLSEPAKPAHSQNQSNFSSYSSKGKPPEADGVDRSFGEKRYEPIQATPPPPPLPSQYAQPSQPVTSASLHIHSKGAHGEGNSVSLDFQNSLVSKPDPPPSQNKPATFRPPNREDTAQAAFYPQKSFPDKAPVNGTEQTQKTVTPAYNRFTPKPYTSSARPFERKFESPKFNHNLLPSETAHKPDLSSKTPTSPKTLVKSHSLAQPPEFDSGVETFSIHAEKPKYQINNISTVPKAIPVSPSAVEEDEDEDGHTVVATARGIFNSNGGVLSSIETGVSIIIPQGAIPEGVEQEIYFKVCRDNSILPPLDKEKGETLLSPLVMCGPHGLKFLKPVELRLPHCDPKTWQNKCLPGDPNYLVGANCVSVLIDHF
The following applies: PDZ ZO-1, PDZ Domain 1. The procedure, abridged:
as §1

Assay [3] concerns the target T3, PDZ protein (GST-PDZ fusion) (Homo sapiens, UniProt O14908).
T3 construct: made in house; host or cells: E. coli (DH5alpha, BL21 or JM109)
T3 sequence (O14908 1-333): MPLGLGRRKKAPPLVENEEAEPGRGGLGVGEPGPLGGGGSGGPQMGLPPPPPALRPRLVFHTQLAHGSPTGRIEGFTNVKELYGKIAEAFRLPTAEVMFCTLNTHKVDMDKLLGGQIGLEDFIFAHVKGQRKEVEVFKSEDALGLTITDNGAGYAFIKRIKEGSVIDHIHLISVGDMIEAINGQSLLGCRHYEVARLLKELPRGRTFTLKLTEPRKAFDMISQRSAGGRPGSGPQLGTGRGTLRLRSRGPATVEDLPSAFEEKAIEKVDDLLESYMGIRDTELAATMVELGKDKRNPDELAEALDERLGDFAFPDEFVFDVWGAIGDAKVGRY
As to conditions: PDZ TAX IP2, PDZ Domain 1. The procedure, abridged:
as §1

Assay [4] has as its target T4, PDZ protein (GST-PDZ fusion) (Homo sapiens, UniProt P29475).
T4 construct: made in house; host or cells: E. coli (DH5alpha, BL21 or JM109)
As to conditions: PDZ NOS1, PDZ Domain 1. The procedure, abridged:
as §1

The target of assay [5] is T5, PDZ protein (GST-PDZ fusion) (Homo sapiens, UniProt Q9Y2H9).
T5 construct: made in house; host or cells: E. coli (DH5alpha, BL21 or JM109)
T5 sequence (Q9Y2H9 whole entry, the tested form may be a part): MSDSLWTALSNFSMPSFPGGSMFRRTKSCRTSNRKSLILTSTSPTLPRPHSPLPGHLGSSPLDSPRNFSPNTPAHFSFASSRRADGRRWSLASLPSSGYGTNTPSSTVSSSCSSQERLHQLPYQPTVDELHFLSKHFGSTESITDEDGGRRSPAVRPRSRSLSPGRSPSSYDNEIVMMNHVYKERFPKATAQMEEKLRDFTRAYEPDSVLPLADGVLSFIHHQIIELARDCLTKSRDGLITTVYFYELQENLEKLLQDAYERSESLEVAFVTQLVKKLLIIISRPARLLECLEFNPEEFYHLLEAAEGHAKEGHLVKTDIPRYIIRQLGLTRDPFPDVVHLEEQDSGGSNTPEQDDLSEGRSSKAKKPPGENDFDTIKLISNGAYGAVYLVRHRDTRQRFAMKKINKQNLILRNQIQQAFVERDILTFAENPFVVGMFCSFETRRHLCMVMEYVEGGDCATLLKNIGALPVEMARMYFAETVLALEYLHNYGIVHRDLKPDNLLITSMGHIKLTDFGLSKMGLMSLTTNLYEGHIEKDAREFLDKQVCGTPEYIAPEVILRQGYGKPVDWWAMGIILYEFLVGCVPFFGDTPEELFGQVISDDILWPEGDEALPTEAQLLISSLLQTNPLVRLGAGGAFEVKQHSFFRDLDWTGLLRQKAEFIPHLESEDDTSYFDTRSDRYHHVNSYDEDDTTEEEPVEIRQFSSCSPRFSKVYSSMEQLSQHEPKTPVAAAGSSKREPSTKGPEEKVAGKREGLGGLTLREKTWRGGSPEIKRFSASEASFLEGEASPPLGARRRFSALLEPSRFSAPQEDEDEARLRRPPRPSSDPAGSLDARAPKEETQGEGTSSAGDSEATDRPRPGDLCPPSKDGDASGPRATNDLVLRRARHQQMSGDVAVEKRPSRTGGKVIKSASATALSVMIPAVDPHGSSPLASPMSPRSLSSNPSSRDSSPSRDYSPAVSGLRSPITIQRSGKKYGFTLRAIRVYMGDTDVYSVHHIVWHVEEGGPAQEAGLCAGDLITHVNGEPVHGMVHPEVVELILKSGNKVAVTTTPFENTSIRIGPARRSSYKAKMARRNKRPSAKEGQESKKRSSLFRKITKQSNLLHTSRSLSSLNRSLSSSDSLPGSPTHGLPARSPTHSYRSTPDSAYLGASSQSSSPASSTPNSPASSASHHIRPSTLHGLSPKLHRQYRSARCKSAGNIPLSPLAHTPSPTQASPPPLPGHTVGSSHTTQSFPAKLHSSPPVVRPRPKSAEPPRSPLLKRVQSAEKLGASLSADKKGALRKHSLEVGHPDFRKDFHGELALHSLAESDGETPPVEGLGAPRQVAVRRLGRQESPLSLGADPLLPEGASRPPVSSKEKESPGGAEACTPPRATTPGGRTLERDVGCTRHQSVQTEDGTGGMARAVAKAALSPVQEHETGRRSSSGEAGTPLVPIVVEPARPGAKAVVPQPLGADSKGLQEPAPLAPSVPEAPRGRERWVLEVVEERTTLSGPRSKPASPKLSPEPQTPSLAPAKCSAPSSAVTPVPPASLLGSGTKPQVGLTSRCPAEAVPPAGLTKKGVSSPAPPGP
The following applies: PDZ KIAA0973, PDZ Domain 1. The method, boiled down: as §1

Assay [6] has as its target T6, PDZ protein (GST-PDZ fusion) (Homo sapiens, UniProt Q96JY6).
T6 construct: made in house; host or cells: E. coli (DH5alpha, BL21 or JM109)
T6 sequence (Q96JY6 1-352): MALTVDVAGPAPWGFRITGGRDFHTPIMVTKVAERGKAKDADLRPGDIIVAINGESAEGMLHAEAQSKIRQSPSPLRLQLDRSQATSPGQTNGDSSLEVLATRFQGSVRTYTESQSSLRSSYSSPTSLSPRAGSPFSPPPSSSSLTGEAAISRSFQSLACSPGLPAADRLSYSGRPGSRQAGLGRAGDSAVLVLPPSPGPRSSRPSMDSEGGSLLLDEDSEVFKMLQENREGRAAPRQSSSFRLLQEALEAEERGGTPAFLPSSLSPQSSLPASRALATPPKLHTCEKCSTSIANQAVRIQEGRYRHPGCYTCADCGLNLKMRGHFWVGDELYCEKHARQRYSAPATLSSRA
As to conditions: PDZ LIM-Mystique, PDZ Domain 1. The method, boiled down: as §1

Structures are written as SMILES. Peptide text beside a SMILES is read from it. * marks the point of attachment. Biotin = O=C1N[C@H]2[C@H](CS[C@H]2CCCCC(=O)*)N1

T4 sequence (P29475 whole entry, the tested form may be a part): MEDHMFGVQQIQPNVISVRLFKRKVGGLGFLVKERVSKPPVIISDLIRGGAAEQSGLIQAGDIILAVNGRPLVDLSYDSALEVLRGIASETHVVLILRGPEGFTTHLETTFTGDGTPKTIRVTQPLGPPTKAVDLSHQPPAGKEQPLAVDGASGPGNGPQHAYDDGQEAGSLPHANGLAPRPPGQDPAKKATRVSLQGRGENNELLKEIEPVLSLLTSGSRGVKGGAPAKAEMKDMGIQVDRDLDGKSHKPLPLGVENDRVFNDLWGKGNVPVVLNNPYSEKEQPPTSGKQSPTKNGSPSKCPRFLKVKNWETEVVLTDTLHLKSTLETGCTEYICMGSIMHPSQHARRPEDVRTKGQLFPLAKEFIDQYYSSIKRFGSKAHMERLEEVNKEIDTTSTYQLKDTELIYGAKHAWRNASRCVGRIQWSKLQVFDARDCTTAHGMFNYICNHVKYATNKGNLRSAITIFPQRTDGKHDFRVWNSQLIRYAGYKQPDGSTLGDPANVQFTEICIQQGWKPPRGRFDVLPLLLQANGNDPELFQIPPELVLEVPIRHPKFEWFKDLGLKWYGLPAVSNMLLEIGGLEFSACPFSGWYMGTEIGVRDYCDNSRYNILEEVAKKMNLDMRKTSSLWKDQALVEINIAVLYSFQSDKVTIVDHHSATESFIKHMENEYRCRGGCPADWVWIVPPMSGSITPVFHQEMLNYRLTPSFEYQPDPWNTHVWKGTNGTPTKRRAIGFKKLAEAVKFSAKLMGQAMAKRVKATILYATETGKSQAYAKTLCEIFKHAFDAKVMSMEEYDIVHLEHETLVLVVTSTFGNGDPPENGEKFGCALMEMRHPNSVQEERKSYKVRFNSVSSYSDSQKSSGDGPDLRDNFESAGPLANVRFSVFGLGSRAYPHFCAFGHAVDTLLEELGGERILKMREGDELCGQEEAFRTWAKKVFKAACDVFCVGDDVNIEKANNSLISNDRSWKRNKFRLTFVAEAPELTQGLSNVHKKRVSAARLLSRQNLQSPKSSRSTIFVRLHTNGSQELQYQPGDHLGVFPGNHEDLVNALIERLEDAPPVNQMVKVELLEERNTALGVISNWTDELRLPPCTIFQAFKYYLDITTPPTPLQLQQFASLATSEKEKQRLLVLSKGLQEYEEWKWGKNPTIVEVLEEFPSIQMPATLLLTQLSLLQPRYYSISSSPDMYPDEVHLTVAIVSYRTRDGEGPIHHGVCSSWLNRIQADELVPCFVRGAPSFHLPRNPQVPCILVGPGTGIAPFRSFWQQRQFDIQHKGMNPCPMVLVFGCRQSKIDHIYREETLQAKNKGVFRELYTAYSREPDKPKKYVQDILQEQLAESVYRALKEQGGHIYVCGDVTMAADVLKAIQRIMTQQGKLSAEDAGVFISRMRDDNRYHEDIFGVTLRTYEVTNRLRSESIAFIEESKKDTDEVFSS

For the molecule `CSCC[C@H](NC(=O)[C@H](C)NC(=O)[C@H](CCCNC(=N)N)NC(=O)CNC(=O)[C@@H](NC(=O)[C@H](Cc1c[nH]c2ccccc12)NC(=O)[C@H](CCCNC(=N)N)NC(=O)CNC(=O)CCCC[C@@H]1SC[C@@H]2NC(=O)N[C@@H]21)[C@@H](C)O)C(=O)N[C@@H](CO)C(=O)N[C@@H](C)C(=O)N[C@@H](Cc1c[nH]c2ccccc12)C(=O)N[C@@H](CCCCN)C(=O)N1CCC[C@H]1C(=O)N[C@H](C(=O)N[C@@H](CCCNC(=N)N)C(=O)N[C@@H](CCCNC(=N)N)C(=O)N[C@@H](CCC(=O)O)C(=O)N[C@H](C(=O)N[C@@H](CCC(=O)O)C(=O)N[C@H](C(=O)O)C(C)C)[C@@H](C)O)[C@@H](C)O` [HPV E6 #35 (modified)] (Biotin-GRWTGRAMSAWKPTRRETEV-OH; C-terminus assumed), the Classification is listed as 4 (A450 nm 3-4) in assay [1]; 1 (A450 nm 0-1) in assay [2]; 4 (A450 nm 3-4) in assay [3]; 1 (A450 nm 0-1) in assay [4]; 2 (A450 nm 1-2) in assay [5]; 1 (A450 nm 0-1) in assay [6].
